# Laboratory results published in article PMC7725785, “TRIB3 promotes MYC-associated lymphoma development through suppression of UBE3B-mediated MYC degradation” (Nature Communications, 2020).
# Where a SMILES comes first, the peptide text is derived from it. [ ]: non-standard residue; d: D form.
# Assays:
# [1] = system: MYC and MAX; assay: Duolink PLA of MYC and MAX colocalization in Raji cells; assay type: cell-based, human; settings: peptide 4 µM 12 hr, MG132 20 μM 6 hr, result in words
# Procedure: A total of 1 × 10^6 cells were seeded overnight in a six-well plate. The next day, cells were collected, fixed in 4% paraformaldehyde solution, permeabilized with 0.5% Triton-X100, blocked with Duolink® Blocking Solution, and probed with antibodies directed against MYC (R&D, NB600-302, 1:100), TRIB3 (Novus, H00057761-M03, 1:100), UBE3B (Invitrogen, PA5-59390, 1:100), and MAX (Cell Signaling Technology, #4739, 1:100). The cells were then treated with the Duolink In Situ Red Starter Mouse/Rabbit kit (Sigma Aldrich, DUO92101-1KT) according to the manufacturer’s instructions. Images were captured with an OLYMPUS confocal microscope.
# [2] = system: MAX protein; assay: SPR kinetic interaction of α-helical peptides (CM1-CM4) with MAX; assay type: binding; settings: result in words
# Procedure: (§1) Binding kinetics between MYC and UBE3B, TRIB3 and the indicated α helical peptides, MAX and the indicated α helical peptides, or MYC and MAX were analyzed using a BIAcore T200 instrument (GE Healthcare, CA, USA) as described previously. Briefly, binding reactions were performed in HBS-EP buffer (GE Healthcare) at pH 7.4. TRIB3/MYC/MAX protein was coated on the flow cell of a CM5 sensor chip by direct immobilization. Another flow cell, not coated with an immobilized protein, was used to evaluate nonspecific binding. The binding analyses were performed at a flow rate of 25 μl/min at 25 °C. A total of 0–200 nM peptide or 0–500 nM TRIB3 protein was passed over the surface of the sensor chip. The association rate constant (Ka) and the dissociation rate constant (Kd) were calculated according to the BIA evaluation software. The dissociation constant (KD) was determined by Kd/Ka.
# [3] = system: MAX and MYC; assay: SPR kinetic interaction of MAX and MYC proteins with indicated peptides (CM1-CM4); assay type: binding; settings: result in words
# Procedure: as §1
# [4] = system: TRIB3 and MYC; assay: SPR kinetic interaction of TRIB3 and MYC proteins with or without CM4; assay type: binding; settings: in vitro, result in words
# Procedure: as §1
# [5] = system: MYC polyubiquitination by UBE3B; assay: In vitro ubiquitination assay of MYC (UBE3B, UBCH3); assay type: biochemical; settings: result in words
# Procedure: In vitro ubiquitination was performed according to the protocol provided with the Ubiquitination Kit (UW9920, BioMol) with some modifications. Briefly, MYC-His, UBE3B-His, UBE3B-(R346Q)-His, UBE3B-(C1036A)-His, and UBE3B-C-His were expressed in free-style 293 cells and purified by a Ni2+-NTA resin (GE). The assays were carried out at 37 °C in a 50-μl reaction mixture containing 20 U/ml inorganic pyrophosphatase (Sigma Aldrich), 5 mM dithiothreitol, 5 mM Mg-ATP, 100 nM E1, […], […], […], and […]. […] To obtain accurate results, the PAGE gel was run for a relatively long time until protein bands smaller than 40 kDa ran off the bottom line of the gel as judged by the protein molecular weight marker. Then, the protein was transferred to a polyvinylidene difluoride membrane (PVDF). To reduce the background noise, an anti-MYC antibody (Cell Signaling Technology, 1:1000) was used to detect MYC polyubiquitination via western blot analysis instead of the HRP-Streptavidin detection system recommended by the kit for the detection of biotinylated ubiquitin.
# [6] = system: MYC and UBE3B; assay: In vitro coimmunoprecipitation of purified MYC, UBE3B and TRIB3 with or without CM4; assay type: binding; settings: purified His-MYC, His-UBE3B and GST-TRIB3 with or without CM4; result in words
# Procedure: Co-IP experiments were performed as described in the section of immunoprecipitation.
# [7] = target: T1, TRIB3 protein (Homo sapiens, UniProt Q96RU7); assay: SPR kinetic interaction of α-helical peptides (CM1-CM4) with TRIB3; assay type: binding
# T1 construct: GST; purchased Sinobiological Inc. 10731-H09B
# T1 sequence (Q96RU7 1-358): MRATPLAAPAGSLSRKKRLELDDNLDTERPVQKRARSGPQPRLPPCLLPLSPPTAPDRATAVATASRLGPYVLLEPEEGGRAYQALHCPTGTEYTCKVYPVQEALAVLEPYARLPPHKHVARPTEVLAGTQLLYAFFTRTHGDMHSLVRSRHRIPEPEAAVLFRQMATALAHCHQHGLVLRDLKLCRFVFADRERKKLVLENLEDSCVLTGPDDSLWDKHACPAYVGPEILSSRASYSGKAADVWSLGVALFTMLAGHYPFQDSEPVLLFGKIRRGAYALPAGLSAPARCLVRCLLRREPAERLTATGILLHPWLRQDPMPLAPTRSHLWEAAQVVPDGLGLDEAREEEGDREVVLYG
# Procedure: as §1
structure (smiles),measurement,setting,value
CC(C)C[C@@H](NC(=O)[C@@H](CCC(N)=O)NC(=O)[C@@H](CCC(=O)O)NC(=O)[C@@H](CC(C)C)NC(=O)[C@@H](CCCCN)NC(=O)[C@@H](Cc1c[nH]cn1)NC(=O)[C@@H](CCCCN)NC(=O)[C@@H](CC(C)C)NC(=O)[C@@H](CCC(N)=O)NC(=O)[C@@H](CCC(=O)O)NC(=O)[C@@H](CCCNC(=N)N)NC(=O)[C@@H](CCCNC(=N)N)NC(=O)[C@H](N)CCCCN)C(=O)N[C@H](CCCNC(=N)N)C(=O)O [CM4] (H-[dK][dR][dR][dE][dQ][dL][dK][dH][dK][dL][dE][dQ][dL][dR]-OH; N-terminus and C-terminus assumed),colocalization of MYC and MAX in MG132-treated Raji cells,[1],did not affect the colocalization of MYC and MAX
same,ability to bind MAX,[2],not
same,effect on the binding of MYC and MAX,[3],not
same,effect on the binding affinity of TRIB3 and MYC,[4],decreased the binding affinity of TRIB3 and MYC
same,polyubiquitination of MYC in vitro,[5],restored the polyubiquitination of MYC
same,binding of MYC and UBE3B in vitro,[6],increased the binding of MYC and UBE3B
same,Kd,"[7]; BIAcore T200, HBS-EP pH 7.4, 25 °C, printed in Fig. 6a",76.4 nM
same,kon,"[7]; BIAcore T200, HBS-EP pH 7.4, 25 °C, printed in Fig. 6a, read-out: ka",1.01e+06 M⁻¹ s⁻¹
same,binding affinity for TRIB3,[7]; result in words,high binding affinity
